Measured values taken from the supplement of paper PMC10307832.

What was measured:
Assay in all cases: relative viability (nuclei count vs DMSO), 5 days (fraction); higher = more cells survive
[1] = compound: CC1=C(CC(=O)O)c2cc(F)ccc2/C1=C\c1ccc([S+](C)[O-])cc1 [Sulindac] + COc1cc2c(Oc3ccc(NC(=O)C4(C(=O)Nc5ccc(F)cc5)CC4)cc3F)ccnc2cc1OCCCN1CCOCC1 [Foretinib] (partner 0.25 µM)
Procedure, shortened: (§1)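 For relative viability, nuclei counts in treated wells were divided by those in vehicle wells. Lung cancer cell lines had been pin-tool dosed in 1536-well plates the day after seeding and cultured for 5 days, then fixed and stained in one step (final 0.05% Triton X-100, 1% formaldehyde, 1 ug/ml Hoechst) and imaged at 4×. Doses were one drug alone or a fixed anchor-drug dose plus five library-drug doses (not always all listed) in √10 steps, and values are duplicate-plate medians.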

[2] = compound: O=c1[nH]cc(F)c(=O)[nH]1 [5-Fluorouracil] + C[C@]1(O)C[C@@H](c2nc(-c3ccc4ccc(-c5ccccc5)nc4c3)c3c(N)nccn32)C1 [Linsitinib] (partner 1 µM)
Procedure, shortened: as §1

[3] = compound: CC1=C(CC(=O)O)c2cc(F)ccc2/C1=C\c1ccc([S+](C)[O-])cc1 [Sulindac] + CC(=O)Nc1cccc(-n2c(=O)n(C3CC3)c(=O)c3c(Nc4ccc(I)cc4F)n(C)c(=O)c(C)c32)c1 [Trametinib] (partner 0.02 µM)
Procedure, shortened: as §1

[4] = compound: CC1=C(CC(=O)O)c2cc(F)ccc2/C1=C\c1ccc([S+](C)[O-])cc1 [Sulindac] + COc1cccc2cc(-c3nc([C@H]4CC[C@H](C(=O)O)CC4)n4ncnc(N)c34)[nH]c12 [OSI-027] (partner 0.5 µM)
Procedure, shortened: as §1

Row | Cell Line | relative viability ([1]; first compound 0.08 µM) | relative viability ([1]; first compound 0.253 µM) | relative viability ([1]; first compound 8 µM) | relative viability ([2]; first compound 0.02 µM) | relative viability ([2]; first compound 0.2 µM) | relative viability ([2]; first compound 0.6325 µM) | relative viability ([2]; first compound 2 µM) | relative viability ([3]; first compound 0.08 µM) | relative viability ([3]; first compound 0.253 µM) | relative viability ([3]; first compound 0.8 µM) | relative viability ([3]; first compound 2.53 µM) | relative viability ([3]; first compound 8 µM) | relative viability ([4]; first compound 0.08 µM) | relative viability ([4]; first compound 0.253 µM) | relative viability ([4]; first compound 0.8 µM) | relative viability ([4]; first compound 2.53 µM) | relative viability ([4]; first compound 8 µM) | relative viability ([1]; first compound 0.8 µM) | relative viability ([1]; first compound 2.53 µM)
1 | 201T | 1.1 | 1.08 | 1.22 | 0.991 | 0.955 | 0.452 | 0.342 | 0.763 | 0.732 | 0.717 | 0.695 | 0.712 | 0.746 | 0.802 | 0.744 | 0.727 | 0.879 |  | 
2 | A549 | 1.04 | 1.12 | 1.12 | 0.633 | 0.652 | 0.301 | 0.119 |  |  |  |  |  |  |  |  |  |  | 0.653 | 0.975
3 | A-427 | 1.08 | 1.05 | 1.02 | 1.05 | 1.08 | 1.11 | 0.546 | 0.685 | 0.709 | 0.732 | 0.673 | 0.848 | 0.495 | 0.474 | 0.443 | 0.459 | 0.584 | 0.979 | 1.17
4 | ABC-1 | 1.02 | 0.96 | 1.33 | 0.739 | 0.987 | 0.714 | 0.748 |  |  |  |  |  | 0.503 | 0.447 | 0.361 | 0.466 | 0.489 | 1.02 | 0.867
5 | BEN | 0.834 | 0.693 | 0.771 | 0.813 | 0.754 | 0.641 | 0.646 | 0.975 | 1.03 | 0.934 | 1.02 | 1.13 | 0.312 | 0.271 | 0.29 | 0.321 | 0.301 | 0.57 | 0.569
6 | CAL-12T | 1.22 | 1.22 | 1.27 | 0.487 | 0.87 | 0.673 | 0.412 | 0.285 | 0.357 | 0.343 | 0.312 | 0.361 | 0.534 | 0.847 | 0.51 | 0.61 | 0.696 | 0.911 | 1.12
7 | COR-L23 | 1.18 | 1.03 | 1.26 | 0.846 | 0.945 | 0.43 | 0.234 | 0.653 | 0.671 | 0.357 | 0.548 | 0.725 | 1.09 | 0.777 | 0.609 | 0.743 | 0.94 | 0.88 | 0.982
8 | COR-L 105 | 0.871 | 0.904 | 1.44 | 0.976 | 0.862 | 0.937 | 0.575 | 0.374 | 0.472 | 0.445 | 0.45 | 0.449 | 0.653 | 0.747 | 0.498 | 0.635 | 0.843 | 1.18 | 0.783
9 | Calu-6 | 1.02 | 0.916 | 1.08 | 0.975 | 1.01 | 0.82 | 0.61 |  |  |  |  |  |  |  |  |  |  | 0.846 | 0.893
10 | ChaGo-K-1 | 1.05 | 0.999 | 0.926 |  |  |  |  | 1.05 | 0.963 | 0.817 | 0.914 | 0.903 | 0.68 | 0.644 | 0.398 | 0.57 | 0.61 | 0.925 | 0.991
